Data on two molecules can be found in paper PMC8846325, “A Photoactivable Natural Product with Broad Antiviral Activity against Enveloped Viruses, Including Highly Pathogenic Coronaviruses” (Antimicrobial Agents and Chemotherapy, 2022).

The assay deals with HCoV-229E. Briefly: HCoV-229E-Luc infection inhibition luciferase assay. The format is cell-based.

SMILES strings stand for the structures.

On to `CCOC(=O)[C@H]1O[C@@H]1C(=O)N[C@@H](CC(C)C)C(=O)NCCC(C)C` [E64D], for which the “HCoV-229E infection with entry inhibitor” value is “specifically inhibited HCoV-229E infection”. Regarding `CN(C)C(=O)COC(=O)Cc1ccc(OC(=O)c2ccc(NC(=N)N)cc2)cc1` [Camostat], the “HCoV-229E infection with entry inhibitor” value was “inhibited infection”.
